# From patent US11685762B2, “Aqueous suspension compositions, formulations, and water dispersible dry compositions comprising 16alpha-bromo-3beta-hydroxy-5alpha-androstan-17-ketone and hydrates, derivatives, and analogs thereof” (SD Chem, Inc., priority 2019, dated 2023)
# Marks after values point to notes of the source that are not given here.
# Experiments:
# [1] = test system: ICR mice with colitis induced by DSS; experiment: DSS induced mouse colitis model; assay type: in vivo; conditions: for White blood cell count: Mean ± SD, n = 12; for Macrohage cell count: abdominal macrophages
# Procedure: Experimental animals: 72 ICR mice, male and female, 25-29 g body weight before starting the experiment.
# Subgrouping: The experimental animals are divided into 6 groups at random, 12 mice in each group: physiological saline group, high dose group (40 mg/kg), moderate dose group (20 mg/kg), low dose group (10 mg/kg) of BEA obtained in Formulation/Composition 1 of the present invention, Dexamethasone (0.1 mg/kg), DSS model group.
# Model replication: The experimental mice are […] 3% DSS and fed with water routinely for 7 days, the colitis model is duplicated.
# Administration of drug: the mice are injected with the test drug on the same day when DSS are injected.
# Experimental animal management: the general physical condition, loose stools, and bloody stools are observed every day.
# The fecal occult blood is tested 3 days after injected with drug. The blood tests are done on day 7. The macrophages are counted and their IL-6 and TNF-alpha are determined. Their inflammation and ulcer level are observed. The colon content is taken to smear, stain and then determined the G+/G−. The thymus, spleen, liver are taken to weight and calculate the organ index. Sections of colon are sent for pathological examination.
# [2] = test system: Entamoeba histolytica; conditions: hamsters; cited from earlier work
# [3] = test system: BALB/c male mice sensitized and challenged with OVA; experiment: Mouse asthma model (OVA challenge, bronchioalveolar lavage cell count); assay type: in vivo; conditions: 0.2 mg/kg per day
# Procedure: In this experiment, the BEA formulation is prepared based present invention formulation (Formulation of Composition 1 in Example 1).
# 18 BALB/c male mice, 8 weeks old are sensitized with two intraperitoneal (IP) administrations, 5 days apart, of 10 μg chicken egg ovalbumin (OVA, grade V; Sigma) emulsified in 1 mg of aluminum hydroxide (Thermo Scientific, Rockford, Ill., USA) in a total volume of 100 μl. Then, after one month mice are challenged via intratracheal (IT) administration of 0.75% OVA. BEA formulation is administered at 0.2 mg/kg dose in an injection volume of 0.1 mL in two different routes of administration (intratracheal and subcutaneous (SC)), one hour after the OVA challenge and one dose per day for up to 7 days. Then, animals are euthanized by exsanguination under pentobarbital anesthesia. The bronchioalveolar lavage (BAL) of the mice are used to determine the total counts of inflammatory cells. Control mice receive saline solution intraperitoneally (IP). All experiments are performed in accordance with INCMN Mexico City regulations. Two independent experiments are performed.
# [4] = test system: Vk*MYC Mice; experiment: Anti-myeloma activity in Vk*MYC mice (M-Spike); conditions: 15 mg/kg/day
# Procedure: 3 Vk*MYC Mice are evaluated. […] The M-Spike value are assessed at day 7 and 14 respectively. […] The M-Spike value are assessed at day 7, 14 and 21 respectively.
# [5] = test system: Taenia crassiceps; conditions: mice, administration prior to infection with cysticerci; cited from earlier work
smiles,measurement,setting,value
"C[C@@H]1C[C@H]2[C@@H]3CCC4=CC(=O)C=C[C@]4(C)[C@@]3(F)[C@@H](O)C[C@]2(C)[C@@]1(O)C(=O)CO [Dex, Dexamethasone, reference compound]",IL-6/TNF-alpha,[1]; Dexamethasone 0.1 mg/kg,15.8 ± 8.7
same,IL-6 level,[1]; Dexamethasone 0.1 mg/kg,791.7 ± 234.3 pg/mL
same,Spleen index,[1]; Dexamethasone 0.1 mg/kg,7.9 ± 1.7 mg/g
same,TNFa level,[1]; Dexamethasone 0.1 mg/kg,92.4 ± 42.1 pg/mL
same,The length of colon,[1]; Dexamethasone 0.1 mg/kg,9.9 ± 1.2 cm
same,Thymus index,[1]; Dexamethasone 0.1 mg/kg,0.9 ± 0.4 mg/g
same,number of animals with bloody stools,[1]; Dexamethasone 0.1 mg/kg,8/12
same,number of animals with fecal occult blood (3rd day),[1]; Dexamethasone 0.1 mg/kg,9/12
same,White blood cell count,[1]; Dexamethasone 0.1 mg/kg,5.0 ± 2.6# X10^9
same,Macrohage cell count,[1]; Dexamethasone 0.1 mg/kg,24.4 ± 5.7 X10^5
"C[C@]12CC[C@H](O)C[C@@H]1CC[C@@H]1[C@@H]2CC[C@]2(C)C(=O)[C@H](Br)C[C@@H]12 [BEA, 16alpha-bromo-3beta-hydroxy-5alpha-androstan-17-ketone]",Final weight,[1]; BEA 10 mg/kg,26.5 ± 2.6 g
same,IL-6/TNF-alpha,[1]; BEA 10 mg/kg,9.5 ± 7.9
same,IL-6 level,[1]; BEA 10 mg/kg,551.7 ± 391.4 pg/mL
same,Spleen index,[1]; BEA 10 mg/kg,5.7 ± 2.0 mg/g
same,TNFa level,[1]; BEA 10 mg/kg,49.5 ± 23.2 pg/mL
same,The length of colon,[1]; BEA 10 mg/kg,10.4 ± 1.0 cm
same,Thymus index,[1]; BEA 10 mg/kg,2.7 ± 1.0 mg/g
same,Weight before fasting,[1]; BEA 10 mg/kg,28.2 ± 2.8 g
same,number of animals with bloody stools,[1]; BEA 10 mg/kg,5/12
same,number of animals with fecal occult blood (3rd day),[1]; BEA 10 mg/kg,7/12
same,White blood cell count,[1]; BEA 10 mg/kg,5.9 ± 1.4 X10^9
same,Macrohage cell count,[1]; BEA 10 mg/kg,28.3 ± 8.9 X10^5
same,Final weight,[1]; BEA 20 mg/kg,25.7 ± 1.8 g
same,IL-6/TNF-alpha,[1]; BEA 20 mg/kg,16.8 ± 8.0
same,IL-6 level,[1]; BEA 20 mg/kg,589.1 ± 227.1 pg/mL
same,Spleen index,[1]; BEA 20 mg/kg,5.9 ± 1.0 mg/g
same,TNFa level,[1]; BEA 20 mg/kg,49.1 ± 37.0 pg/mL
same,The length of colon,[1]; BEA 20 mg/kg,10.5 ± 0.9 cm
same,Thymus index,[1]; BEA 20 mg/kg,2.9 ± 0.7 mg/g
same,Weight before fasting,[1]; BEA 20 mg/kg,27.7 ± 2.5 g
same,number of animals with bloody stools,[1]; BEA 20 mg/kg,5/12
same,number of animals with fecal occult blood (3rd day),[1]; BEA 20 mg/kg,7/12
same,White blood cell count,[1]; BEA 20 mg/kg,5.2 ± 1.5# X10^9
same,Macrohage cell count,[1]; BEA 20 mg/kg,32.3 ± 1.3# X10^5
same,Final weight,[1]; BEA 40 mg/kg,25.6 ± 1.7 g
same,IL-6/TNF-alpha,[1]; BEA 40 mg/kg,12.7 ± 8.6
same,IL-6 level,[1]; BEA 40 mg/kg,370.8 ± 219.1 pg/mL
same,Spleen index,[1]; BEA 40 mg/kg,6.4 ± 1.2 mg/g
same,TNFa level,[1]; BEA 40 mg/kg,31.4 ± 15.1 pg/mL
same,The length of colon,[1]; BEA 40 mg/kg,9.2 ± 0.8 cm
same,Thymus index,[1]; BEA 40 mg/kg,3.1 ± 0.7 mg/g
same,Weight before fasting,[1]; BEA 40 mg/kg,27.6 ± 1.7 g
same,number of animals with bloody stools,[1]; BEA 40 mg/kg,6/12
same,number of animals with fecal occult blood (3rd day),[1]; BEA 40 mg/kg,6/12
same,White blood cell count,[1]; BEA 40 mg/kg,5.9 ± 2.9 X10^9
same,Macrohage cell count,[1]; BEA 40 mg/kg,24.6 ± 3.4 X10^5
same,reduction on the development of amoebic liver abscesses,[2],20%
same,Inflammatory Cell Number in bronchioalveolar lavage,"[3]; IT, Day 3",4.61 × 10^4
same,Inflammatory Cell Number in bronchioalveolar lavage,"[3]; IT, Day 7",5.99 × 10^4
same,Inflammatory Cell Number in bronchioalveolar lavage,"[3]; SC, Day 3",4.07 × 10^4
same,Inflammatory Cell Number in bronchioalveolar lavage,"[3]; SC, Day 7",1.06 × 10^5
same,reduction of M-Spike,[4],40%
same,reduction of parasite load compared with controls,[5],50%
